Measurements from patent publication US20230108730A1, “BIENZYMATIC BIOSENSOR FOR THE DETECTION OF LACTULOSE IN BLOOD” (TRIVIUMVET DESIGNATED ACTIVITY COMPANY, priority 2020, published 2023).

How the values were obtained:
[1] = Plasma lactulose after oral lactulose solution in canine NSAID-induced gastric ulceration model (ion chromatography); assay type: in vivo, dog; settings: for concentration at 10 min / concentration at 20 min / concentration at 30 min / concentration at 60 min: dog, plasma, po; for concentration at 20 min: 20 min after 0.6-0.7 g/kg PO; for concentration at 30 min: 30 min after 0.6-0.7 g/kg PO; for concentration at 60 min: 60 min after 0.6-0.7 g/kg PO
Experimental: A model of canine gastric ulceration was developed using a combination of orally administered nonsteroidal anti-inflammatory drugs (NSAIDs) at doses appropriate to induce ulceration without concomitant renal or hepatic dysfunction. Healthy laboratory dogs (14.0 to 16.7 kg) were screened to exclude individuals with clinically silent disorders, including gastrointestinal disease. Under the GCP study protocol, each dog was administered 50 ml of a 20% w/v lactulose solution orally (0.6-0.7 g/kg lactulose PO) following a 24-h fast at baseline and following a period of ulcer induction. On each occasion, peripheral venous blood was drawn from each dog into 1.3-ml Sarstedt blood tubes containing lithium heparin as an anticoagulant at 10, 20, 30 and 60 minutes following bolus administration of the lactulose solution. The Sarstedt tube product number was 41.1393.005. Blood samples were centrifuged for 15 minutes at 3000 rpm, before decanting plasma into plain tubes; plasma was stored at −80° C. until analysis. Prior to lactulose administration, endoscopy was performed on each dog, and the presence and extent of gastric ulceration were assessed by a blinded specialist veterinary gastroenterologist. Following confirmation of the presence of ulceration, NSAID administration was discontinued and post ulcer induction lactulose administration and plasma collection were performed. Frozen plasma samples were transported under GMP conditions at −80° C. to an analytical facility. Following thawing, the samples were analysed for lactulose concentration using an ion chromatography method previously developed using blank plasma samples spiked with known concentrations of lactulose. [table] Sample preparation for Ion Chromatography analysis: 200 μL aliquots of liquid from each of the plasma samples were diluted to 1000 μL with acetonitrile. The samples were vortexed thoroughly, followed by centrifugation at 15000 rpm for 10 minutes. The supernatants were analysed directly by ion chromatography. Analysis was performed in duplicate. Calibration Curve: Calibration curves were prepared in the blank plasma sample. Briefly, plasma samples were spiked with varying concentrations of lactulose and were then diluted with acetonitrile to the required final concentration range. The samples were then processed as described above before analysis by ion chromatography. Samples were analysed in duplicate. Linearity was established for plasma lactulose concentrations in the range 5 to 250 μM.

[2] = Electrochemical dual-enzyme (β-Gal/GalOx) biosensor quantification of lactulose in canine plasma sample by amperometry; assay type: in vivo; settings: dog, oral, canine plasma sample CAN 84049 D6 t60, standard additions calibration, read-out: lactulose concentration in the original plasma sample
Source text: An electrochemical biosensor for the indirect detection of lactulose in buffer and plasma samples used an electrocatalytic surface as the working electrode which was modified with a dual enzyme system comprising β-galactosidase (β-Gal) and galactose oxidase (GalOx). The electrochemical biosensor comprised a 3-electrode system of a working electrode (the dual enzyme-modified Pt electrode), an Ag/AgCl reference electrode, and a Pt wire as auxiliary electrode.
The enzymes were immobilised on the surface of the working electrode using a cross-linker. A 2 mm diameter Pt disk was used as the electrocatalytic surface for the working electrode. […]
The three electrodes were immersed in 2 mL of PBS solution 0.1 M pH 7.3 at 35° C. to comprise the electrochemical cell and an oxidative potential of +600 mV was applied between the working and reference electrodes for quantification of lactulose in a canine plasma sample by amperometry, as illustrated in FIG. 5. […]
Following this 200 μL of canine plasma (CAN 84049 D6 t60) was added to the cell and the current response was monitored for a period of 400 s.
Three sequential additions of a volume of 1 mM Lactulose standard (V1=75 μL; V2=80 μL; V3=85 μL) were then added to the cell and the current response was monitored for 400 s after each addition. […]

H-2 receptors = H-2 receptors (Homo sapiens, UniProt P25021); settings: human subjects, administered intravenously; cited from earlier work
Sequence of H-2 receptors (P25021 whole entry): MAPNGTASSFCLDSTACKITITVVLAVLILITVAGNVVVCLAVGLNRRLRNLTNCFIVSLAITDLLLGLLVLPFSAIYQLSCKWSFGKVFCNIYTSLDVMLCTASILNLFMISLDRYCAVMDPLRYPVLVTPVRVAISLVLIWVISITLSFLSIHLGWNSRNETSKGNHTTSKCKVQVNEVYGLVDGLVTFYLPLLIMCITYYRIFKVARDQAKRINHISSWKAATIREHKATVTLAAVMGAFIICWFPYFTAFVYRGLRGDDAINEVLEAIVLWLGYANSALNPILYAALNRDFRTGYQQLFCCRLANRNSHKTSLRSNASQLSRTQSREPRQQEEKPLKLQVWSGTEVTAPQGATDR

gastric ulceration = assay: Omeprazole treatment of study dogs with NSAID-induced gastric ulceration; assay type: in vivo, dog; settings: 0.5 to 1.0 mg/kg twice daily for 3 weeks
gastric ulcers = settings: foals; ulcers associated with intravenous high-dose NSAIDs; cited from earlier work
[3] = ulceration Moderate to severe (n = 4)

Compound: OC[C@H]1O[C@@H](O[C@@H]2[C@@H](CO)OC(O)(CO)[C@H]2O)[C@H](O)[C@@H](O)[C@H]1O (mixture of isomers) [Lactulose, lactulose]
- concentration at 10 min ([1]; 10 min after 0.6-0.7 g/kg PO (50 ml 20% w/v), endoscopic grade of gastric ulceration Absent (n = 8)): 24.9 µM
- concentration at 10 min ([1]; 10 min after 0.6-0.7 g/kg PO, ulceration Mild (n = 4)): 44.6 µM
- concentration at 10 min ([1]; 10 min after 0.6-0.7 g/kg PO, ulceration Moderate to severe (n = 4)): 60.9 µM
- concentration at 20 min ([1]; ulceration Absent (n = 8)): 39.1 µM
- concentration at 20 min ([1]; ulceration Mild (n = 4)): 68.7 µM
- concentration at 20 min [1, 3]: 94.3 µM
- concentration at 30 min ([1]; ulceration Absent (n = 8)): 46 µM
- concentration at 30 min ([1]; ulceration Mild (n = 4)): 88.2 µM
- concentration at 30 min [1, 3]: 144 µM
- concentration at 60 min ([1]; ulceration Absent (n = 8)): 61.1 µM
- concentration at 60 min ([1]; ulceration Mild (n = 4)): 110 µM
- concentration at 60 min [1, 3]: 184 µM
- rate and extent of systemic lactulose absorption ([1]; following ulcer induction versus baseline, each dog): increased significantly
- concentration at 60 min [2]: 275 to 400 µM

Compound: NC(N)=Nc1nc(CSCCC(N)=NS(N)(=O)=O)cs1 [famotidine]
- time to occurrence of tolerance (H-2 receptors): 12 to 72 h

Compound: COc1ccc2[nH]c([S+]([O-])Cc3ncc(C)c(OC)c3C)nc2c1 (centres unmarked) [omeprazole]
- time to resolution of laboratory evidence of gastric ulceration (anemia, inflammatory leucogram, hypoalbuminaemia) (gastric ulceration): ≤ 3 weeks

Compound: sucralfate
- effect on gastric ulcers (gastric ulcers): protective effect
